These results are taken from paper PMC10413907 (Journal of Evidence-based Integrative Medicine, 2023).

Where “and” joins values, the source holds several entries; their conditions need not be identical. Identical values can stand only once. Like-named read-outs stand apart in the source and are kept apart here.

In data set [1] the test system is PBMCs (from healthy subjects). Put plainly: MTT cell proliferation assay, PBMCs. In kind it is cell-based, human. In general terms: Tetrazolium dyes change colour on reduction, which living cells bring about.
The subject of another data set is HaCaT cells. The data set is described as follows: MTT cell proliferation assay, HaCaT. The data set is classed as cell-based, human. To be noted: 48 h, median (range).
Another data set concerns the target T1, recombinant human CYP1A2 (Homo sapiens, UniProt P05177).
T1 sequence (P05177 1-516): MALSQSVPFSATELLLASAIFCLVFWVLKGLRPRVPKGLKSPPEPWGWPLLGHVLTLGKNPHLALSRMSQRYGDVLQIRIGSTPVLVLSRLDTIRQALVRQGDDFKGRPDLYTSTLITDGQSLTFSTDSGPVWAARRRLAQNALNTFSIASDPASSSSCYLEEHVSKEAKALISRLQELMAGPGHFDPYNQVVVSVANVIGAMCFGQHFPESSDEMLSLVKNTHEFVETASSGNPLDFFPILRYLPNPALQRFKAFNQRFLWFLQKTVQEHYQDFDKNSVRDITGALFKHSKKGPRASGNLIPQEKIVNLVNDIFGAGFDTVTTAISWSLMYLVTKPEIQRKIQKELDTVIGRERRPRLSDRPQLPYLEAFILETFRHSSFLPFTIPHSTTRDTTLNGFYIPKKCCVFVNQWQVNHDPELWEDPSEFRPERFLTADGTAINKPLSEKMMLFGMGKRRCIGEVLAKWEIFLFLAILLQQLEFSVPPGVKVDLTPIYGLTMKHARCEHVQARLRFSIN
Put plainly: P450-Glo bioluminescent CYP450 inhibition assay. The data set is classed as in vitro ADME.

For data set [2], the target named is recombinant human CYP2C19 (Homo sapiens, UniProt P33261). The data set is described as follows: P450-Glo bioluminescent CYP450 inhibition assay. The data set is classed as in vitro ADME.
recombinant human CYP2C19, sequence (P33261 whole entry): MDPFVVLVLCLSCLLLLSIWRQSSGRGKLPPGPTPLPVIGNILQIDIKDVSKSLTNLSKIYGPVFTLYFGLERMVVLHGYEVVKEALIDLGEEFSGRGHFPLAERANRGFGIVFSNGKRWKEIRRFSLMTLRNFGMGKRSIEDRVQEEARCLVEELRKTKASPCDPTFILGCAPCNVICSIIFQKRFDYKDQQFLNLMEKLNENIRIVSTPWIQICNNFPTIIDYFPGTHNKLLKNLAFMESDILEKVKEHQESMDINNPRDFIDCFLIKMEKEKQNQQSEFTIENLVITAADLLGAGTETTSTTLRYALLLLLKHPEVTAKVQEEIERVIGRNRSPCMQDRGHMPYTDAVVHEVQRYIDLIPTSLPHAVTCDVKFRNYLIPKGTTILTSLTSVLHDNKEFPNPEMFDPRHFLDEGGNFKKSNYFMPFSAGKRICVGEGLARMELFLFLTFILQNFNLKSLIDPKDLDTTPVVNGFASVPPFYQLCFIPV
Another data set deals with recombinant human CYP3A4 (Homo sapiens, UniProt P08684). Put plainly: P450-Glo bioluminescent CYP450 inhibition assay. The data set is classed as in vitro ADME.
recombinant human CYP3A4, sequence (P08684 whole entry): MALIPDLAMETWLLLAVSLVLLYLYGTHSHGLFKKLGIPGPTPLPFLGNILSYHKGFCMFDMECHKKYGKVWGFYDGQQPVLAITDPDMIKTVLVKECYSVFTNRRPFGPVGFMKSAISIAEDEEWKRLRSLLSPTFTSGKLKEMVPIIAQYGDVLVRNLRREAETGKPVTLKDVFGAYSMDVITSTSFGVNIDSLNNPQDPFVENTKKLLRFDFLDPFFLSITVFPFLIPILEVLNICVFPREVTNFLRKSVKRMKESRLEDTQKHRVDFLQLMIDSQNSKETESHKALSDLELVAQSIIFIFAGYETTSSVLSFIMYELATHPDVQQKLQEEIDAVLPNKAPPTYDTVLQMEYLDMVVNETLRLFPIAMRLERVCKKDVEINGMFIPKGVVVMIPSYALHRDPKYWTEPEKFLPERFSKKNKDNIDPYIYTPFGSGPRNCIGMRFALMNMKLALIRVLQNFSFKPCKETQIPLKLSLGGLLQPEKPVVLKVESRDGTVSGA
Another data set relates to IL-6 mRNA. The data set is described as follows: Pro-inflammatory cytokine mRNA expression. The data set is classed as cell-based, human. As to conditions: PBMCs from psoriasis patients vs healthy subjects; 48 h; IC50.
The test system of the next data set is IL-23A mRNA. Put plainly: Pro-inflammatory cytokine mRNA expression. The data set is classed as cell-based, human. As to conditions: PBMCs from psoriasis patients vs healthy subjects, 48 h.
For the next data set, the system named is IL-12p19 mRNA. Put plainly: Pro-inflammatory cytokine mRNA expression. The data set is classed as cell-based, human. To be noted: PBMCs from psoriasis patients vs healthy subjects.
For data set [3], the system named is PBMCs from psoriasis patients and healthy subjects. Put plainly: Cell apoptosis/necrosis, FITC-Annexin V/PI flow cytometry, PBMCs. In kind it is cell-based, human. To be noted: 48 h exposure; for proportions of PBMCs with early apoptosis, psoriasis patients compared with healthy volunteers: both concentrations.
The next data set has as its target recombinant human CYP2C9 (Homo sapiens, UniProt P11712). Put plainly: P450-Glo bioluminescent CYP450 inhibition assay.
For a further data set, the target named is recombinant human CYP2D6 (Homo sapiens, UniProt P10635). Put plainly: P450-Glo bioluminescent CYP450 inhibition assay.
recombinant human CYP2D6, sequence (P10635 whole entry): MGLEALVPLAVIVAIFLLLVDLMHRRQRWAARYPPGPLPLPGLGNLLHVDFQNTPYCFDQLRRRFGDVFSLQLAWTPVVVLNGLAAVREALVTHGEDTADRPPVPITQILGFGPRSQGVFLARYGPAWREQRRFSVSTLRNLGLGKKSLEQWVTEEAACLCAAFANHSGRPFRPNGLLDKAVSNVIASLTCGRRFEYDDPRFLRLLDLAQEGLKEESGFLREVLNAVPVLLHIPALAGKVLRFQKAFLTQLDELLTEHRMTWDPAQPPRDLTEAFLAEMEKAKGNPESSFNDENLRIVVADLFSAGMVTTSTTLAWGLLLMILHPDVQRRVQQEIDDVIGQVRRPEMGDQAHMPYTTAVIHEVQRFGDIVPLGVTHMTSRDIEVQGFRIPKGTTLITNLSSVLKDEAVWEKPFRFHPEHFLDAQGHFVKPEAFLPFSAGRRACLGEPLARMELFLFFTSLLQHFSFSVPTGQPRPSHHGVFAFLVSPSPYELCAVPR
The next data set deals with TNF-α mRNA. Put plainly: Pro-inflammatory cytokine mRNA expression. The data set is classed as cell-based, human. To be noted: PBMCs from psoriasis patients vs healthy subjects; 48 h; IC25.
The test system of data set [4] is PBMCs from psoriasis patients and healthy subjects. Put plainly: Cell cycle analysis by flow cytometry. In kind it is cell-based, human. As to conditions: PBMCs from patients with psoriasis; 24 h; both concentrations. (A flow cytometer gives signals particle by particle.)
[5] abbreviates: read-out: CYP1A2 IC50, median (range), unit of the reference inhibitor.
[6] abbreviates: read-out: CYP1A2 inhibitory potency class, class by IC50.
Where [7] appears, read: read-out: CYP2C19 IC50, median (range), unit of the reference inhibitor.
Setting [8] is: read-out: CYP2C19 inhibitory potency class, class by IC50.
The mark [9] stands for this setting: read-out: CYP3A4 IC50, median (range), unit of the reference inhibitor.
Setting [10] is: read-out: CYP3A4 inhibitory potency class, class by IC50.
Setting [11] is: read-out: CYP2C9 IC50, median (range), unit of the reference inhibitor.
[12] abbreviates: read-out: CYP2C9 inhibitory potency class, class by IC50.
Setting [13] is: read-out: CYP2D6 IC50, median (range), unit of the reference inhibitor.
[14] abbreviates: read-out: CYP2D6 inhibitory potency class, class by IC50.

recombinant human CYP2C9, sequence (P11712 whole entry): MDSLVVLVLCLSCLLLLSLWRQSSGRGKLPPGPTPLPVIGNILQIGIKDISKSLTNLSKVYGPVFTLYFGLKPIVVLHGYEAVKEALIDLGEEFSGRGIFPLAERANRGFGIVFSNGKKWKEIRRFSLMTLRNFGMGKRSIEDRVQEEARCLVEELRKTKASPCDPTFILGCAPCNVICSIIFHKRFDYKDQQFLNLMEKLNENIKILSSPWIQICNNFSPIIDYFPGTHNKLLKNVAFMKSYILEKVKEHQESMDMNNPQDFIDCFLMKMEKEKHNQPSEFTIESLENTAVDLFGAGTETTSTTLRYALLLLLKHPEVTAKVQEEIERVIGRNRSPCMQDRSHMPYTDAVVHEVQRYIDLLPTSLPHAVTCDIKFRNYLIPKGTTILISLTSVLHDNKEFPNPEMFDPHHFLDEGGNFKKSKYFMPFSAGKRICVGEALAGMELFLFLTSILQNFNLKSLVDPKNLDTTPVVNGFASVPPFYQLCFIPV

On to `CCOC(=O)C=Cc1ccc(OC)cc1` [EPMC, ethyl-p-methoxycinnamate], for which the “PBMCs IC25” value in data set [1] (48 h, median (range)) was 254 (234-258) μM. Besides, the “PBMCs IC50” value in [1] (48 h, median (range)) was found to be 63.09 µg/mL. Moreover, the IC50 is 306 µM and 305 µM in [1] (read-out: PBMCs IC50, 48 h, median (range)); 554 µM in the data set on HaCaT cells (read-out: HaCaT IC50, MTT); 118 µM at recombinant human CYP1A2 (setting [5]); over 50 µM on recombinant human CYP1A2 (setting [6]); 80.4 µM in data set [2] (setting [7]); over 50 µM in data set [2] (setting [8]). The IC50 on recombinant human CYP3A4 (setting [9]) is 865 µM; at recombinant human CYP3A4 (setting [10]) it was over 50 µM; on recombinant human CYP2C9 (setting [11]) it was 87.5 µM; on recombinant human CYP2C9 (setting [12]) it was over 50 µM; at recombinant human CYP2D6 (setting [13]), 17.8 µM; at recombinant human CYP2D6 (setting [14]), 10 to 50 µM. Moreover, the “HaCaT IC25” value in the data set on HaCaT cells (MTT) was 432 (395-458) μM. In addition, in the data set on HaCaT cells (MTT), the “HaCaT IC50” value was 114.25 µg/mL. Besides, the “IL-6 mRNA expression” value with IL-6 mRNA is “reduced”. For the same compound, the “IL-23A mRNA expression” value in the data set with IL-23A mRNA (IC50) is “reduced”. Besides, the “IL-12p19 mRNA expression” value in the data set on IL-12p19 mRNA (24 h, only at IC50) is on record as “downregulating”. In data set [3], the “proportions of PBMCs with early apoptosis, psoriasis patients compared with healthy volunteers” value is on record as “significantly lower”. Moreover, the “CYP2D6 inhibitory potency class” value at recombinant human CYP2D6 (class by IC50) is on record as “moderately inhibited”.

Consider `COc1cc(/C=C/C(=O)O)ccc1O` [Ferulic acid, ferulic acid], for which the IC50 was 5250 µM on recombinant human CYP1A2 (setting [5]); over 50 µM on recombinant human CYP1A2 (setting [6]); 1450 µM in data set [2] (setting [7]); over 50 µM in [2] (setting [8]); 1150 µM on recombinant human CYP3A4 (setting [9]); over 50 µM at recombinant human CYP3A4 (setting [10]). The IC50 on recombinant human CYP2C9 (setting [11]) was 469 µM; at recombinant human CYP2C9 (setting [12]) it was over 50 µM; at recombinant human CYP2D6 (setting [13]), 11.4 µM; on recombinant human CYP2D6 (setting [14]) it was 10 to 50 µM. Also, on recombinant human CYP2D6 (class by IC50), the “CYP2D6 inhibitory potency class” value is given as “moderately inhibited”.

For `CCC/C=C1\OC(=O)C2=C1CCC=C2` [Ligustilide, ligustilide], the “PBMCs IC25” value in data set [1] (48 h, median (range)) is 105 (101-106) μM. Moreover, the IC50 with HaCaT cells (Homo sapiens, HaCaT, read-out: HaCaT IC50, MTT, 48 h) was 188 µM and 35.8 µg/mL; at recombinant human CYP1A2, 10 to 50 µM; in data set [2] (CYP2C19 IC50, median (range), unit of the reference inhibitor), 89.2 µM; in [2] (CYP2C19 inhibitory potency class, class by IC50), over 50 µM; at recombinant human CYP3A4 (CYP3A4 IC50, median (range), unit of the reference inhibitor), 39.8 µM; on recombinant human CYP3A4 (CYP3A4 inhibitory potency class, class by IC50), 10 to 50 µM. The IC50 is 114 µM at recombinant human CYP2C9 (CYP2C9 IC50, median (range), unit of the reference inhibitor); over 50 µM at recombinant human CYP2C9 (CYP2C9 inhibitory potency class, class by IC50); 218 µM on recombinant human CYP2D6 (CYP2D6 IC50, median (range), unit of the reference inhibitor); over 50 µM on recombinant human CYP2D6 (CYP2D6 inhibitory potency class, class by IC50). In the data set on HaCaT cells (MTT), the “HaCaT IC25” value is recorded as 151 (138-155) μM. Besides, at recombinant human CYP1A2 (class by IC50), the “CYP1A2 inhibitory potency class” value was “moderately inhibited”. Besides, the “CYP3A4 inhibitory potency class” value on recombinant human CYP3A4 (class by IC50) is listed as “moderately inhibited”. In the data set on IL-6 mRNA, the “IL-6 mRNA expression” value is on record as “downregulating”. The “IL-23A mRNA expression” value in the data set with IL-23A mRNA (IC25) is recorded as “downregulated”. In the data set with TNF-α mRNA, the “TNF-α mRNA expression” value is on record as “downregulated”. In the data set on IL-12p19 mRNA (48 h, IC25), the “IL-12p19 mRNA expression” value is reported as “downregulated”. Also, the “phase of cell cycle arrest” value in [4] was “S phase”. The “proportions of living PBMCs from psoriasis patients compared with PBMCs from healthy volunteers” value in [3] was “significantly higher”. For the same compound, the “proportions of PBMCs with early apoptosis, psoriasis patients compared with healthy volunteers” value in [3] was “significantly lower”.
